Where two headings read alike, the source gives them in different places. A value given as a limit tells only on which side of the number the result lay.

As usually defined, the EC50 is the concentration needed to bring the measured effect to its halfway point.

The target of the test is T1, CFTR (Homo sapiens, UniProt P13569, DEL508-508).
T1 construct: endogenous in cells; host or cells: primary human bronchial epithelial cells from CF subjects (F508del/MF-HBE), differentiated at air-liquid interface
Kind of test: HBE assay: Ussing chamber assay of CFTR-mediated short-circuit currents. It counts as cell-based. The procedure, abridged: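 CFTR-mediated Isc (μA/cm²) equals the peak response to apical 20 μM forskolin minus the residual after a 20 μM each BPO/GlyH-101/CFTR inhibitor 172 cocktail, recorded in Ussing chambers at Vhold 0 mV, 37 °C, pH 7.4, with 30 μM apical amiloride. Cells were F508del/MF HBE cultures preincubated 18-24 h with corrector (concentration range or 10 μM) plus 1 μM ivacaftor in 20% human serum.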

Where [1] appears, read: Table 11, read-out: HBE Max Activity (%).
The mark [2] stands for this setting: HBE assay, read-out: HBE Max activity (%).
Setting [3] is: Table 11, at 10 μM, read-out: HBE Activity at 10 μM (%).
The mark [4] stands for this setting: Table 10, at 10 μM, read-out: HBE activity at 10 (μM) (%).
The mark [5] stands for this setting: Table 12, at 10 μM, read-out: HBE Activity at 10 μM (%).
Setting [6] is: Table 12, read-out: HBE Max Activity (%).
The mark [7] stands for this setting: Table 13, at 10 μM, read-out: HBE Activity at 10 μM (%).
[8] abbreviates: HBE assay, 10 μM, read-out: HBE Activity at 10 μM (%).
Setting [9] is: Table 10, read-out: HBE Max activity (%).
The mark [10] stands for this setting: Table 13, read-out: HBE Max Activity (%).

T1 sequence (P13569 with tags, fused parts or gaps DEL508-508): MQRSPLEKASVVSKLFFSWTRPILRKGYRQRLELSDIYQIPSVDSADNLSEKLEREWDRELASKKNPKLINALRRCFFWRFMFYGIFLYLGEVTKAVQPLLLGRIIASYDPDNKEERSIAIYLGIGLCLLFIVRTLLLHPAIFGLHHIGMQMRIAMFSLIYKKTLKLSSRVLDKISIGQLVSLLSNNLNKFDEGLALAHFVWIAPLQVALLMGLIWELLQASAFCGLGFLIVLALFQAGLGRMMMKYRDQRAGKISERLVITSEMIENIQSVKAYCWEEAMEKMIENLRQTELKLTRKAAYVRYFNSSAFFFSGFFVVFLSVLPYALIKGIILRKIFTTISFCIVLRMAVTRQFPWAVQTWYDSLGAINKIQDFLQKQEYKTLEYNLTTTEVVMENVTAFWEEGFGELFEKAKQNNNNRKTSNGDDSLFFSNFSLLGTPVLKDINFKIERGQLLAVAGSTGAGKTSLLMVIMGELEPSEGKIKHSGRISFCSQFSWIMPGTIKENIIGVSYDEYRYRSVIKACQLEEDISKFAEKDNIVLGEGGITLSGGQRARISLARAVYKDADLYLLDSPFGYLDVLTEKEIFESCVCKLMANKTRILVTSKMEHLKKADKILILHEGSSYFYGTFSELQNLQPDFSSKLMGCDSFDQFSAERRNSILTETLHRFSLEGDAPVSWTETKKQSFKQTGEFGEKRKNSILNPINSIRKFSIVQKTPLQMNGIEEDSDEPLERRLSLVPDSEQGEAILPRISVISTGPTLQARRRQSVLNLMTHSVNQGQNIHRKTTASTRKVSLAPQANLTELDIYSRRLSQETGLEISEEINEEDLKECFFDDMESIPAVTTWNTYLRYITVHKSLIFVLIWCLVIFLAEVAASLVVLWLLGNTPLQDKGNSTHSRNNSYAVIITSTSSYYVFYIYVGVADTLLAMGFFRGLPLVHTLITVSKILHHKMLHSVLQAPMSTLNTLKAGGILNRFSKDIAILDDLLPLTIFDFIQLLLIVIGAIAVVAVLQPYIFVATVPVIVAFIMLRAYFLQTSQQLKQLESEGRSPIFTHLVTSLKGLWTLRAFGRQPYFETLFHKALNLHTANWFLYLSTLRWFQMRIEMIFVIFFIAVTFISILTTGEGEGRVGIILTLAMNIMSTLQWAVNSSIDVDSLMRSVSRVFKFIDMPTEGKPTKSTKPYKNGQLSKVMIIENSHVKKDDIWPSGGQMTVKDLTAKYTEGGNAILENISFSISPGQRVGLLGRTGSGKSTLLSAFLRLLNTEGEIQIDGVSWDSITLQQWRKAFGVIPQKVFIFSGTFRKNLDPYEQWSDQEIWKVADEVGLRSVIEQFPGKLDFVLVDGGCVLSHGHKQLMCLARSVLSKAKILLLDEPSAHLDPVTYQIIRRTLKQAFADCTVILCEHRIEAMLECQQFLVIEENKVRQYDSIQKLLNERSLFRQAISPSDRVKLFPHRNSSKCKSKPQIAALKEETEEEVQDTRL

Turning to `Cc1cccc(C)c1-c1cc2nc(n1)NS(=O)(=O)c1cccc(c1)C(=O)N(Cc1cccc(NC(C)(C)C)n1)[C@H](CC(C)(C)C)CO2` [Compound 739], for the setting “Table 11, read-out: HBE EC50”, the EC50 was less than 1 µM. Further, under setting [1], the Emax was greater than 60%.

On to `Cc1cccc(C)c1-c1cc2nc(n1)NS(=O)(=O)c1cccc(c1)C(=O)N(Cc1ncc(OC(F)(F)F)cn1)[C@H](CC(C)(C)C)CO2` [Compound 1425], for which the concentration giving a half-maximal response (EC50) (HBE assay, read-out: HBE EC50) was less than 1 µM. Further, the Emax under setting [2] was greater than 60%.

Turning to `COCCOc1cnc(CN2C(=O)c3cccc(c3)S(=O)(=O)Nc3nc(cc(-c4c(C)cccc4C)n3)OC[C@H]2CC(C)(C)C)c(C)c1` [Compound 1382], the EC50 (HBE assay, read-out: HBE EC50) is less than 1 µM. Moreover, under setting [2], the Emax is greater than 60%.

Turning to `Cc1cccc(C)c1-c1cc2nc(n1)NS(=O)(=O)c1cccc(c1)C(=O)N(C[C@H]1CC(C)(C)CCO1)[C@H](CC(C)(C)C)CO2` (single isomer, unassigned) [Compound 24], the activation at 10 µM under setting [3] is greater than 60%.

Take `CC(C)c1cccc(C(C)C)c1-c1cc2nc(n1)NS(=O)(=O)c1cccc(c1)C(=O)N(Cc1ccc(N3CCCCC3)cn1)[C@H](CC(C)(C)C)CO2` [Compound 829]: the activation at 10 µM under setting [4] is greater than 60%.

For `Cc1cccc(C)c1-c1cc2nc(n1)NS(=O)(=O)c1cccc(c1)C(=O)N(Cc1cn(C(C)C)cn1)[C@H](CC(C)(C)C)CO2` [Compound 232], the activation at 10 µM under setting [5] is greater than 600%.

On to `Cc1cccc(C)c1-c1cc2nc(n1)NS(=O)(=O)c1cccc(c1)C(=O)N(Cc1ncc(N3CCC(C)(C)C3)cn1)[C@H](C(C)C)CO2` [Compound 695], for which the activation at 10 µM under setting [5] was greater than 600%. Moreover, the EC50 (Table 12, read-out: HBE EC50) is less than 1 µM. In addition, under setting [6], the Emax is less than 30%.

As to `Cc1cccc(C)c1-c1cc2nc(n1)NS(=O)(=O)c1cccc(c1)C(=O)N(CC(=O)N(C)CC1CCOCC1)[C@H](CC(C)(C)C)CO2` [Compound 223], the activation at 10 µM under setting [7] is greater than 600%.

With `Cc1cccc(C)c1-c1cc2nc(n1)NS(=O)(=O)c1cccc(c1)C(=O)N(Cc1ncc(N(C)C)c(C)n1)[C@H](CC(C)(C)C)CO2` [Compound 1008], under setting [5], the activation at 10 µM was greater than 600%.

In the case of `CNC(=O)COc1ccccc1CN1C(=O)c2cccc(c2)S(=O)(=O)Nc2nc(cc(-c3c(C)cccc3C)n2)OC[C@H]1CC(C)(C)C` [Compound 775], under setting [4], the activation at 10 µM is greater than 60%.

Turning to `Cc1cccc(C)c1-c1cc2nc(n1)NS(=O)(=O)c1cccc(c1)C(=O)N(CC1CCN(CCC(C)(C)C)C1=O)[C@H](CC(C)(C)C)CO2` (stereo partly drawn) [Compound 652], the activation at 10 µM under setting [3] was greater than 60%. Besides, the EC50 (Table 11, read-out: HBE EC50) was less than 1 µM. In addition, the Emax under setting [1] was greater than 60%.

Consider `Cc1cccc(C)c1-c1cc2nc(n1)NS(=O)(=O)c1cccc(c1)C(=O)N(CC(=O)N1CCCCC1)[C@H](CC(C)(C)C)CO2` [Compound 200], for which, under setting [7], the activation at 10 µM was greater than 600%.

As for `CCOc1cnc(CN2C(=O)c3cccc(c3)S(=O)(=O)Nc3nc(cc(-c4c(C)cccc4C)n3)OC[C@H]2CCC(C)(C)C)nc1` [Compound 1488], the EC50 (HBE assay, read-out: HBE EC50) was less than 1 µM. In addition, the Emax under setting [2] was greater than 60%.

`Cc1cccc(C)c1-c1cc2nc(n1)NS(=O)(=O)c1cccc(c1)C(=O)N(Cc1cc3n(n1)CCCO3)[C@H](CC(C)(C)C)CO2` [Compound 456]: under setting [5], the activation at 10 µM was greater than 600%.

Turning to `Cc1cccc(C)c1-c1cc2nc(n1)NS(=O)(=O)c1cccc(c1)C(=O)N(Cc1ccc(-c3cc[nH]n3)cc1)[C@H](CC(C)(C)C)CO2` [Compound 290], under setting [4], the activation at 10 µM was greater than 60%.

For the molecule `Cc1cccc(C)c1-c1cc2nc(n1)NS(=O)(=O)c1cccc(c1)C(=O)N(Cc1cnc3ccccn13)[C@H](CC(C)(C)C)CO2` [Compound 879], under setting [5], the activation at 10 µM is greater than 600%.

Consider `Cc1cccc(C)c1-c1cc2nc(n1)NS(=O)(=O)c1cccc(c1)C(=O)N(Cc1ncc(N3CC(C)(C)C3)cn1)[C@H](CC1CC1)CO2` [Compound 1505], for which the activation at 10 µM under setting [8] is greater than 60%. Also, where the note is “HBE assay, read-out: HBE EC50”, the EC50 is less than 1 µM. Besides, the Emax under setting [2] is greater than 60%.

Take `Cc1cccc(C)c1-c1cc2nc(n1)NS(=O)(=O)c1cccc(c1)C(=O)N(Cc1nc(C(C)C)cn1COCC[Si](C)(C)C)[C@H](CC(C)(C)C)CO2` [Compound 265]: the activation at 10 µM under setting [5] was greater than 600%.

On to `COC[C@H]1CC[C@@H](C)N1c1cncc(CN2C(=O)c3cccc(c3)S(=O)(=O)Nc3nc(cc(-c4c(C)cccc4C)n3)OC[C@H]2CC(C)(C)C)n1` [Compound 1450], for which the EC50 (HBE assay, read-out: HBE EC50) is less than 1 µM. Also, the Emax under setting [2] is greater than 60%.

Take `Cc1cccc(C)c1-c1cc2nc(n1)NS(=O)(=O)c1cccc(c1)C(=O)N(Cc1cncc(N(C)C3CC4(CCC4)C3)n1)[C@H](CC(C)(C)C)CO2` [Compound 441]: the EC50 (Table 12, read-out: HBE EC50) was less than 1 µM. The Emax under setting [6] is greater than 60%.

With `Cc1cccc(C)c1-c1cc2nc(n1)NS(=O)(=O)c1cccc(c1)C(=O)N(Cc1ccc(Cc3nccs3)cc1)[C@H](CC(C)(C)C)CO2` [Compound 296], the EC50 (Table 10, read-out: HBE EC50) is less than 1 µM. In addition, under setting [9], the Emax is greater than 60%.

With `Cc1cccc(C)c1-c1cc2nc(n1)NS(=O)(=O)c1cccc(c1)C(=O)N(CC1CCN(c3ncccn3)CC1)[C@H](CC(C)(C)C)CO2` [Compound 109, (11R)-6-(2,6-Dimethylphenyl)-11-(2,2-dimethylpropyl)-2,2-dioxo-12-[(1-pyrimidin-2-yl-4-piperidyl)methyl]-9-oxa-2λ^6-thia-3,5,12,19-tetrazatricyclo[12.3.1.14,8]nonadeca-1(18),4(19),5,7,14,16-hexaen-13-one], under “Table 10, read-out: HBE EC50”, the EC50 was less than 1 µM. Moreover, the Emax under setting [9] is greater than 60%.

On to `Cc1cccc(C)c1-c1cc2nc(n1)NS(=O)(=O)c1cccc(c1)C(=O)N(Cc1ncc(N3CC(C)C3)cn1)[C@H](CC(C)(C)C)CO2` [Compound 1403], for which, under “HBE assay, read-out: HBE EC50”, the EC50 was less than 1 µM. In addition, the Emax under setting [2] is greater than 60%.

As to `Cc1cccc(C)c1-c1cc2nc(n1)NS(=O)(=O)c1cccc(c1)C(=O)N(Cc1cncc(N3CCC(C)(C)C3)c1)[C@H](CC(C)(C)C)CO2` [Compound 285], where the note is “Table 12, read-out: HBE EC50”, the EC50 is less than 1 µM. The Emax under setting [6] is greater than 60%.

As for `Cc1cccc(C)c1-c1cc2nc(n1)NS(=O)(=O)c1cccc(c1)C(=O)N(Cc1cccc(N(CC3CC3)C(C)C)n1)[C@H](CC(C)(C)C)CO2` [Compound 235], under “Table 13, read-out: HBE EC50”, the EC50 was less than 1 µM. The Emax under setting [10] was greater than 60%.

In the case of `Cc1cccc(C)c1-c1cc2nc(n1)NS(=O)(=O)c1cccc(c1)C(=O)N(Cc1nccc(C(C)(C)C)n1)[C@H](CC(C)(C)C)CO2` [Compound 814], the EC50 (Table 11, read-out: HBE EC50) is less than 1 µM. Also, the Emax under setting [1] is greater than 60%.

For `Cc1cccc(C)c1-c1cc2nc(n1)NS(=O)(=O)c1cccc(c1)C(=O)N(Cc1cc(C)n(C)n1)[C@H](CC(C)(C)C)CO2` [Compound 828], the activation at 10 µM under setting [4] was greater than 60%.

Take `Cc1cccc(C)c1-c1cc2nc(n1)NS(=O)(=O)c1cccc(c1)C(=O)N(Cc1cccc(N3CCCC3C(F)(F)F)n1)[C@H](CC(C)(C)C)CO2` (stereo partly drawn) [Compound 549]: the activation at 10 µM under setting [5] is greater than 600%.

In the case of `CCO[C@H]1CCN(c2cnc(CN3C(=O)c4cccc(c4)S(=O)(=O)Nc4nc(cc(-c5c(C)cccc5C)n4)OC[C@H]3CC(C)(C)C)nc2)C1` [Compound 1438], the EC50 (HBE assay, read-out: HBE EC50) was less than 1 µM. Also, the Emax under setting [2] was greater than 60%.

Regarding `Cc1cccc(C)c1-c1nc2nc(c1C)OC[C@@H](CC(C)(C)C)N(CC1CCCO1)C(=O)c1cccc(c1)S(=O)(=O)N2` (stereo partly drawn) [Compound 836], the Emax under setting [9] was greater than 60%.

For the molecule `Cc1cccc(C)c1-c1cc2nc(n1)NS(=O)(=O)c1cccc(c1)C(=O)N(Cc1cncc(N3CCC[C@@H]3C)c1)[C@H](CC(C)(C)C)CO2` [Compound 283], under setting [5], the activation at 10 µM was greater than 600%.

Regarding `CCC(C)Oc1cnc(CN2C(=O)c3cccc(c3)S(=O)(=O)Nc3nc(cc(-c4c(C)cccc4C)n3)OC[C@H]2CC(C)(C)C)nc1` (stereo partly drawn) [Compound 1345], the EC50 (HBE assay, read-out: HBE EC50) is less than 1 µM. Moreover, the Emax under setting [2] is greater than 60%.

For the molecule `Cc1cccc(C)c1-c1cc2nc(n1)NS(=O)(=O)c1cccc(c1)C(=O)N(Cc1nc(N(C)CC(C)(C)C)ccc1F)[C@H](CC(C)(C)C)CO2` [Compound 371], the EC50 (Table 13, read-out: HBE EC50) was less than 1 µM. In addition, the Emax under setting [10] is greater than 60%.

Take `Cc1cccc(C)c1-c1cc2nc(n1)NS(=O)(=O)c1cccc(c1)C(=O)N(Cc1ncc(OC3CCCOC3)cn1)[C@H](CC(C)C)CO2` (stereo partly drawn) [Compound 1433]: under setting [8], the activation at 10 µM was greater than 60%.

As for `C=C(C)c1nccc(CN2C(=O)c3cccc(c3)S(=O)(=O)Nc3nc(cc(-c4c(C)cccc4C)n3)OC[C@H]2CC(C)(C)C)n1` [Compound 593], the EC50 (Table 12, read-out: HBE EC50) was less than 1 µM. The Emax under setting [6] is greater than 60%.

`Cc1cccc(C)c1-c1cc2nc(n1)NS(=O)(=O)c1cccc(c1)C(=O)N(Cc1nc(C(C)C)cn1C)[C@H](CC(C)(C)C)CO2` [Compound 267]: the EC50 (Table 12, read-out: HBE EC50) was less than 1 µM. Further, the Emax under setting [6] was greater than 60%.

As for `Cc1cccc(C)c1-c1cc2nc(n1)NS(=O)(=O)c1cccc(c1)C(=O)N(Cc1ncc(OC3CC4(CC4)C3)cn1)[C@H](CC(C)(C)C)CO2` [Compound 560], where the note is “Table 12, read-out: HBE EC50”, the EC50 was less than 1 µM. Also, under setting [6], the Emax was greater than 60%.

For `Cc1cccc(C)c1-c1cc2nc(n1)NS(=O)(=O)c1cccc(c1)C(=O)N(Cc1cccc(Oc3ccccc3)n1)[C@H](CC(C)(C)C)CO2` [Compound 126, (11R)-6-(2,6-Dimethylphenyl)-11-(2,2-dimethylpropyl)-2,2-dioxo-12-[(6-phenoxy-2-pyridyl)methyl]-9-oxa-2λ^6-thia-3,5,12,19-tetrazatricyclo[12.3.1.14,8]nonadeca-1(18),4(19),5,7,14,16-hexaen-13-one], the EC50 (HBE EC50 (μM), Table 10) was less than 1 µM. Moreover, the Emax (read-out: HBE Max activity (%)) was greater than 60%.

The values above are taken from patent US20240150377A1, “MODULATORS OF CYSTIC FIBROSIS TRANSMEMBRANE CONDUCTANCE REGULATOR” (VERTEX PHARMACEUTICALS INCORPORATED, priority 2020, published 2024).
